Measured values published in publication PMC12469672, “Effects on Oral Squamous Carcinoma Cell Lines and Their Mechanisms of Pyrazole N-Aryl Sulfonate: A Novel Class of Selective Cyclooxygenase-2 Inhibitors” (International Journal of Molecular Sciences, 2025).

What was measured:
[1] = tested on: JAK/STAT signaling pathway in SAS cells; assay: Western blot JAK/STAT signaling pathway, SAS; type: cell-based
Description: Cell lysates were centrifuged at 12,000× g for 10 min at 4 °C and then quantified using the BCA Protein Assay Kit (CW0014S, Cwbio, Taizhou, China). The lysate was denatured with sodium dodecyl sulfate–polyacrylamide gel electrophoresis (SDS-PAGE) sample loading buffer (P1040, Solarbio, Beijing, China), followed by SDS-PAGE and electrotransfer to polyvinylidene difluoride membranes (10600023, Cytiva, Marlborough, MA, USA). […] The bands were visualized by employing an ECL detection reagent (36208ES76, Yeasen, Shanghai, China) and independently quantified twice using ImageJ (v1.8.0.322) and ChemiScope Analysis (Version 2.1.6.0) software. […]

MMP9 mRNA in SAS cells = assay: RT-qPCR MMP9 mRNA, SAS; type: cell-based; settings: vs control
Description: (§1) Equal amounts of RNA were reverse transcribed into cDNA using the Reverse Transcription Kit (AG11705, Accurate Biology, Guangzhou, China) following the manufacturer’s instructions. Quantitative PCR was performed on a QIAGEN Rotor-GeneQ system (9001862, QIAGEN, Hilden, Germany) with SYBR Green Pro Taq HS Premix II (AG11702, Accurate Biology, China).
(§2) The PCR protocol consisted of initial denaturation at 95 °C for 30 s, followed by 40 cycles of 95 °C for 5 s and 60 °C for 30 s. All reactions were performed in triplicate, with melting curve analysis confirming amplification specificity. The expression of the target genes was normalized to GAPDH, and fold changes were calculated in the manner of the 2^−ΔΔCT .

[2] = tested on: MMP2 mRNA in CAL-27 cells; assay: RT-qPCR MMP2 mRNA, CAL-27; type: cell-based; settings: CAL-27, 24 h, vs control
Description: as §1, §2

BCL2 mRNA in SAS cells = assay: RT-qPCR BCL2 mRNA, SAS; type: cell-based; settings: vs NC and CXB groups
Description: as §1, §2

[3] = cited from earlier work
[4] = cited from earlier work; remark: listed apart in the source
MMP2 mRNA in SAS cells = assay: RT-qPCR MMP2 mRNA, SAS; type: cell-based; settings: vs control
Description: as §1, §2

SMILES | p-JAK1 level (Western blot) [1] | MMP9 mRNA level (MMP9 mRNA in SAS cells) | MMP2 mRNA expression [2] | BCL2 mRNA expression (BCL2 mRNA in SAS cells) | oral toxicity [3] | anti-inflammatory and analgesic activities [4] | MMP2 mRNA expression (MMP2 mRNA in SAS cells) | total JAK1 (Western blot) ([1]; vs NC)
Cc1ccc(-c2cc(C)n(S(=O)(=O)Oc3ccc(I)cc3)n2)cc1 [Compound 4b] | no significant change | significant reduction | significantly downregulated | significantly suppressed | low oral toxicity | excellent | markedly suppressed | –
Cc1ccc(-c2cc(C)n(S(=O)(=O)Oc3ccccc3Cl)n2)cc1 [Compound 4d] | – | – | significantly downregulated | – | low oral toxicity | excellent | markedly suppressed | reached statistical significance
Cc1cc(-c2ccco2)nn1S(=O)(=O)Oc1ccccc1Cl [Compound 5f] | – | – | significantly downregulated | significantly suppressed | – | – | no statistically significant suppression | –
